Laboratory results taken from US7973075B2, “Kainate receptor-selective epimeric analogs of dysiherbaine” (priority 2007, dated 2011).
Entries after “also recorded” stand apart in the source; their conditions may differ.

What was measured:
GluR6 = target: T1, GluR6 (Rattus norvegicus, UniProt P42260); details: Table 1; comparison value of MSVIII-19 (Sanders et al., 2005); read-out: GluR6 binding affinity (displacement of [3H]kainate); cited from earlier work
T1 construct: expressed in transfected cells; HEK 293 (patch clamp)

GluR2(i) = target: T2, GluR2(i) (Rattus norvegicus, UniProt P19491); details: Sanders et al., 2005; cited from earlier work
T2 construct: expressed in transfected cells; host or cells: HEK-293-T/17

GluR1(i) = target: T3, GluR1(i) (Rattus norvegicus, UniProt P19490); details: Sanders et al., 2005; cited from earlier work
T3 construct: expressed in transfected cells; host or cells: HEK-293-T/17

GluR6a [1] = target: T4, GluR6a (Rattus norvegicus, UniProt P42260); details: Sanders et al., 2005; cited from earlier work
T4 construct: expressed in transfected cells; host or cells: HEK-293-T/17

GluR6a [2] = target: T4, GluR6a; assay: Whole-cell patch clamp recordings, transfected HEK-293-T/17 cells, Example 2; assay type: cell-based; details: for agonist activity: analog-evoked currents from GluR6a receptors (words): 1 s test application of the analog at a high concentration (50-100 μM)
Method: (§1) Cell Culture and Electrophysiology. HEK-293-T/17 cells were maintained in Dulbecco's modified Eagle's medium (DMEM) supplemented with 100 μg/mL penicillin, 100 μg/mL streptomycin, and 10% heat inactivated fetal bovine serum. One day before transfection, HEK-T/17 cells were plated at low density on glass coverslips coated with 100 μg/ml poly-D-lysine and 100 μg/ml collagen. Cells were transfected with receptor cDNAs ([…]) in combination with enhanced green fluorescent protein (eGFP) cDNA for visualization of transfected cells. Transfections were carried out with Fugene6 (Roche Applied Science) according to the manufacturer's protocol and used 2-3 days following transfection. Internal solution consisted of 110 mM CsF, 30 mM CsCl, 4 mM NaCl, 0.5 mM CaCl2, 10 mM HEPES, and 5 mM EGTA, and was adjusted to pH=7.3 with CsOH. The external solution contained 150 mM NaCl, 2.8 mM KCI, 2 mM CaCl2, 1 mM MgCl2, and 10 mM HEPES, adjusted to pH=7.3 with NaOH. Patch electrodes from thick-walled borosilicate glass (Warner Instruments, Hamden, Conn.) were pulled to a final resistance of 1.5 to 2.5 MO after fire polishing. […] To determine the pre-desensitization IC50 of selected analogs, several control glutamate (10 mM) applications were followed by a 2.5 minute application of various concentrations of 8-deoxy-neoDH, 9-deoxy-neoDH, or MSVIII-19, after which the analogs were co-applied with glutamate. A similar protocol was followed to measure the recovery of glutamate-evoked currents, with the exception that the analogs were not co-applied with glutamate. Whole cell patch clamp recordings were carried out using an Axopatch 200B amplifier (Axon Instruments). Data were analyzed with Origin 7.5 (OriginLab Corp.), and Prism4 (GraphPad Software Inc.); inhibition-response curves were plotted and fit with a one-site competition curve constrained to fixed minima (0) and maxima (100).
(§2) The pharmacological activities of the C2/C4 epimers were determined in patch-clamp assays with GluR5-2a or GluR6a KARs as well as GluR4(i) AMPA receptors.
(§3) 30 μM 2,4-epi-neoDH reduced glutamate-induced currents from GluR5-2a receptors by −70% while the same concentration reduced glutamate-induced currents from GluR6a receptors by −30% (FIG. 13A). […] We noted that the data derived from recording of the GluR5-2a receptor was poorly fit by the single component logistic curve, particularly at the lower concentrations. This inconsistency may arise from inter-subunit or inter-dimer cooperativity in the inhibitory activity or may be an apparent artifact resulting from run-down of the GluR5-2a receptor currents.

GluR4(i) AMPA receptors = target: T5, GluR4(i) AMPA receptors (Rattus norvegicus, UniProt P19493); assay: as above; assay type: cell-based; details: 300 μM analog
T5 construct: expressed in transfected cells; host or cells: HEK-293-T/17
Method: as §1, §2, §3

GluR5-2b = target: T6, GluR5-2b (Rattus norvegicus, UniProt P22756); assay: Radioligand binding ([3H]kainate displacement), Example 2
T6 construct: expressed in transfected cells; host or cells: HEK-293-T/17
Method: Radioligand binding. Membrane preparations from HEK-293-T/17 cells were prepared and used in radioligand binding assays as described previously (Sanders et al., 2005). Unlabeled analogs were used to displace [3H]kainate (10-20 nM, PerkinElmer Life and Analytical Sciences, Boston, Mass.) or [3H]AMPA (20 nM, PerkinElmer Life and Analytical Sciences, Boston, Mass.) from KARs and AMPARs, respectively. Nonspecific binding was determined in the presence of 1 mM glutamate. After 1 hour incubation at 4° C., samples were harvested by rapid filtration onto Whatman GF/C membranes. Upon addition of scintillation fluid, membranes were incubated for 1 hour at room temperature. A Beckman LS5000TD scintillation counter was used for quantification (Beckman Coulter Inc., Fullerton, Calif.). Data were plotted and fit with a one-site competition curve with fixed minima and maxima using Prism 4 (GraphPad Software, Inc). Ki's were calculated with the Cheng-Prusoff equation using the determined IC5o values and the radioligand Kd. Data were plotted and fit with a one-site competition curve with fixed minima (0) and maxima (100) (Prism4, GraphPad Software, Inc.). […]
The pharmacological profiles of the Group I analogs, 8-deoxy-neoDH and 9-deoxyneoDH, were analyzed initially in radioligand binding experiments with expressed recombinant AMPA and kainate receptor subunits. […]

T4 sequence (P42260 32-908): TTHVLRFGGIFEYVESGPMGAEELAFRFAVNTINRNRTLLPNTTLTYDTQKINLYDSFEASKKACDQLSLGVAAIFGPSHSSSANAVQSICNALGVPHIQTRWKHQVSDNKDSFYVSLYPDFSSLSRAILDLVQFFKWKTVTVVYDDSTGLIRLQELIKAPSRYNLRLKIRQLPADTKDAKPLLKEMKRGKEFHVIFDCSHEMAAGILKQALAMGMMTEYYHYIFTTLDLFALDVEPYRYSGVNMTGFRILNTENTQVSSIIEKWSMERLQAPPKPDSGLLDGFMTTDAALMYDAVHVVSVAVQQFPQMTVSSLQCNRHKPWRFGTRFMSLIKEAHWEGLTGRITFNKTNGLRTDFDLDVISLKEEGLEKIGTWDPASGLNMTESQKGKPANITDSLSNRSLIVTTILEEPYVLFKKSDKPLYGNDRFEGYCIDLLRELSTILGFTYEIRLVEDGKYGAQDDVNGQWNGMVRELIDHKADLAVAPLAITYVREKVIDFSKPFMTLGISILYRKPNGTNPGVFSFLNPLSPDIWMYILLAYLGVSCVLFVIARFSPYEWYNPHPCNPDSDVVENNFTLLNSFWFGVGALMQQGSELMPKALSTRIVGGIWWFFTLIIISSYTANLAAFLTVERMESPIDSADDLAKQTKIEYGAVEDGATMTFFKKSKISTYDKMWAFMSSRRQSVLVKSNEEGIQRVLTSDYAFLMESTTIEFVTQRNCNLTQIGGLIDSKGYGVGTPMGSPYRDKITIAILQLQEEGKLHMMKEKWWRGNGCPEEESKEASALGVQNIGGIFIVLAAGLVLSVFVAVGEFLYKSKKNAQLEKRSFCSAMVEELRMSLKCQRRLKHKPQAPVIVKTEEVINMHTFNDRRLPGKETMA
T2 sequence (P19491 22-883 isoform P19491-2 limits assumed): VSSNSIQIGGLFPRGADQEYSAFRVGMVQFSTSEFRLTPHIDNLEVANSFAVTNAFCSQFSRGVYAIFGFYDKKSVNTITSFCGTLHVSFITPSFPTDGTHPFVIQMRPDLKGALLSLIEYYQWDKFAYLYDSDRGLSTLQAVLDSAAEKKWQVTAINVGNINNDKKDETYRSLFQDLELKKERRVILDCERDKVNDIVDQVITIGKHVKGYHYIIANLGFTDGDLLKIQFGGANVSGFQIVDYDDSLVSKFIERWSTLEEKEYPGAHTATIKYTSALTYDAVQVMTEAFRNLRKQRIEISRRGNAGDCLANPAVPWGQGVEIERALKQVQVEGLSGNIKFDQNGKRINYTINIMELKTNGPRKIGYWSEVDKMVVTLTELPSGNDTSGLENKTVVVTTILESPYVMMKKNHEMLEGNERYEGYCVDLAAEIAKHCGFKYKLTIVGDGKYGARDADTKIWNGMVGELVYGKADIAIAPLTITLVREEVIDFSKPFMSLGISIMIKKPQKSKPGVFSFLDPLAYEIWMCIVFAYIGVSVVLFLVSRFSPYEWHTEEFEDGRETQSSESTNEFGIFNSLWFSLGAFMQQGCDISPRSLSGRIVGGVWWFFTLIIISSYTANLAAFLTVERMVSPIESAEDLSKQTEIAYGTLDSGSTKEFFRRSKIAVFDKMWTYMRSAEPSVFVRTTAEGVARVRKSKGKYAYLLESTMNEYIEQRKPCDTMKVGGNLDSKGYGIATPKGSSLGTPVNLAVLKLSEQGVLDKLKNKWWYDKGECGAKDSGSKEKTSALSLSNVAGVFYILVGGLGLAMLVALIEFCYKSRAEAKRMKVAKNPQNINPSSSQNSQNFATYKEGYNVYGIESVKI
T5 sequence (P19493 22-902 isoform P19493-2 limits assumed): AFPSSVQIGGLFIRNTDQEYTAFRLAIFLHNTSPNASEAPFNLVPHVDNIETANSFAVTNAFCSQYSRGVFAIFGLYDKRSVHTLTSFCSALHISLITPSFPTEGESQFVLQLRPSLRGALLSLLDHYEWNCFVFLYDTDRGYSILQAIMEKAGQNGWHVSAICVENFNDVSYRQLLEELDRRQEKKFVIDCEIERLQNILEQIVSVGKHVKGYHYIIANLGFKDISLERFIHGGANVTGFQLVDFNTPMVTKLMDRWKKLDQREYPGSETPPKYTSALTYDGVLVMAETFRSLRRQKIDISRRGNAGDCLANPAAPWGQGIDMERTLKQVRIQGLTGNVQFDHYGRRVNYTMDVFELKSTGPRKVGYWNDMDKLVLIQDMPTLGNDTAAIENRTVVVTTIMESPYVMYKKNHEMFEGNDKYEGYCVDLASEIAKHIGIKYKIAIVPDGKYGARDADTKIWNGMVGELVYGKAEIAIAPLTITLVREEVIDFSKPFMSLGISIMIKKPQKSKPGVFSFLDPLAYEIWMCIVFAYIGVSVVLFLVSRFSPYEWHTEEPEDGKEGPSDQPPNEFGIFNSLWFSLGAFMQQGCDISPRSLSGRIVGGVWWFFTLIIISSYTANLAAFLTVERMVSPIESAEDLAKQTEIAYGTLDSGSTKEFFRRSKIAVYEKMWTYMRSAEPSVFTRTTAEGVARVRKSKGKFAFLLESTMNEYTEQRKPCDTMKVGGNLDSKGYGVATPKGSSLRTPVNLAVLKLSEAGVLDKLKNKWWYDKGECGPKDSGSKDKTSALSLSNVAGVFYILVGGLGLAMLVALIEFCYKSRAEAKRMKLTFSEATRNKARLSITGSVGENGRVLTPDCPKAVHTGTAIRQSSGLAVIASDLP
T1 sequence (P42260 32-908): as the sequence (P42260 32-908) above
T3 sequence (P19490 19-907 isoform P19490-2 limits assumed): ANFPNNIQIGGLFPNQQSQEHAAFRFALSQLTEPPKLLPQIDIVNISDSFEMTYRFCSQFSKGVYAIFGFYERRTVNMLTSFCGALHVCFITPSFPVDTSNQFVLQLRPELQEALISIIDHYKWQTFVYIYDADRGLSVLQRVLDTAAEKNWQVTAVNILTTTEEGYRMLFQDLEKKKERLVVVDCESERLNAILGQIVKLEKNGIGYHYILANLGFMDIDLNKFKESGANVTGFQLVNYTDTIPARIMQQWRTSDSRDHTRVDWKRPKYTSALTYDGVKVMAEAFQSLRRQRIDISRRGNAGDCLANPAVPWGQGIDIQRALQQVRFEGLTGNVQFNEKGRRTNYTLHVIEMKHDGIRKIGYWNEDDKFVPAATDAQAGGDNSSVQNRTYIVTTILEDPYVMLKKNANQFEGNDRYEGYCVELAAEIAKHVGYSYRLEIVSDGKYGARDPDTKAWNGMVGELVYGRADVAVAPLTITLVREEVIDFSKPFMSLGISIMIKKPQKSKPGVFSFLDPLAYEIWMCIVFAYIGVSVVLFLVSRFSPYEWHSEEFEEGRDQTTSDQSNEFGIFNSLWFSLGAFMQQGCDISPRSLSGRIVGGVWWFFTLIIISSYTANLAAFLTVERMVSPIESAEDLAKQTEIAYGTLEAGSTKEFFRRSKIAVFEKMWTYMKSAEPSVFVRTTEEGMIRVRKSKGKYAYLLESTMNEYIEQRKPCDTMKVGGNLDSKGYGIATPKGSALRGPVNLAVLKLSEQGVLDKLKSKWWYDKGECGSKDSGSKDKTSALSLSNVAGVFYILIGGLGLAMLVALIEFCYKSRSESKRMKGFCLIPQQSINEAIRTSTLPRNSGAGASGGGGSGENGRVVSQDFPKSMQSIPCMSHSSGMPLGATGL
T6 sequence (P22756 31-905 isoform P22756-2 limits assumed): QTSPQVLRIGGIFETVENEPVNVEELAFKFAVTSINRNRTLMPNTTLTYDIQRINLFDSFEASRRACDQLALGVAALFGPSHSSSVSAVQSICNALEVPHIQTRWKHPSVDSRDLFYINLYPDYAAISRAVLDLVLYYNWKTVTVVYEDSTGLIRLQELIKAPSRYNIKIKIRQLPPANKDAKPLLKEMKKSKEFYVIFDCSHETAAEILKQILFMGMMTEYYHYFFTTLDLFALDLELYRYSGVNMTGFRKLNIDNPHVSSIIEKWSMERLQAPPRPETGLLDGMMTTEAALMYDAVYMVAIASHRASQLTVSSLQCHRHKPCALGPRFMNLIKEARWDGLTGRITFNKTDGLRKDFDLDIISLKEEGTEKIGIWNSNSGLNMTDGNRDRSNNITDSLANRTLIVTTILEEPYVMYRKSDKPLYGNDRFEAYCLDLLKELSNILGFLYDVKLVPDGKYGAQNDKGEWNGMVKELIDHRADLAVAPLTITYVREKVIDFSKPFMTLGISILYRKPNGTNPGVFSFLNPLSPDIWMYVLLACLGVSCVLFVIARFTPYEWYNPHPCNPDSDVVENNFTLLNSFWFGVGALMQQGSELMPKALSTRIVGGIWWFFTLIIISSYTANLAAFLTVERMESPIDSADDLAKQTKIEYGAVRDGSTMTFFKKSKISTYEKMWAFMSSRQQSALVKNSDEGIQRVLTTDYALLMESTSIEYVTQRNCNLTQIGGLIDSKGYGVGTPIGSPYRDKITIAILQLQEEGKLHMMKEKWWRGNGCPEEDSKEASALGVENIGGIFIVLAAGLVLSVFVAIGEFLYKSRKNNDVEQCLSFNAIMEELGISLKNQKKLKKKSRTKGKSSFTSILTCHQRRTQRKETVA

## N[C@@H](C[C@]1(C(=O)O)C[C@H]2OCCC[C@H]2O1)C(=O)O [MSVIII-19, 8,9-dideoxy-neoDH]
GluR6
  Ki: > 100 µM
GluR2(i)
  Ki: > 100 µM
GluR1(i)
  Ki: > 100 µM
GluR6a [1]
  Ki: > 100 µM

## N[C@@H](C[C@@]1(C(=O)O)CC2OCC(O)C(O)C2O1)C(=O)O (single isomer, unassigned) [4-epi-neoDH, 4-epi-neodysiherbaine]
GluR6a [2]; 30 μM analog
  recovery of glutamate-evoked currents after analog application, GluR6a: only exhibited a transient desensitization
GluR6a [2]
  agonist activity: analog-evoked currents from GluR6a receptors (words): evoked small but detectable currents; also recorded: elicits large currents; also recorded: activates

## N[C@@H](C[C@@]1(C(=O)O)CC2OCC(O)C(O)C2O1)C(=O)O (single isomer, unassigned) [2,4-epi-neoDH, 2,4-epi-neodysiherbaine]
GluR4(i) AMPA receptors
  inhibition of currents from GluR4(i) receptors: failed to inhibit
GluR6a [2]; 30 μM analog
  recovery of glutamate-evoked currents after analog application, GluR6a: current amplitudes recovered more slowly
  reduction of glutamate-induced currents from GluR6a receptors: ~30%
GluR6a [2]; 10 mM glutamate in continued presence of analog, read-out: IC50 inhibition of glutamate-evoked currents, GluR6a
  IC50: 74 µM
GluR6a [2]
  agonist activity: analog-evoked currents from GluR6a receptors (words): failed to elicit detectable current; also recorded: antagonist (or possibly a very weak partial agonist); also recorded: fails to activate GluR5 or GluR6 receptors, even at 100 μM
GluR6a [2]; listed as 2,4-epineoDH
  agonist activity: analog-evoked currents from GluR6a receptors (words): fails to activate

## N[C@@H](C[C@]1(C(=O)O)C[C@H]2OC[C@@H](O)C[C@H]2O1)C(=O)O [8-deoxy-neoDH]
GluR5-2b
  Ki: 0.002 µM
